Data on 23 molecules can be found in ChEMBL document CHEMBL1201862, “PubChem BioAssay data set” (2004).

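Growth conditions: 96-well plates. Treatment: test compound, 48 hours, 5 concentrations. Analysis: linear interpolation between bracketing concentrations; unreached endpoints set to highest concentration. GI50 = concentration required for 50% inhibition of growth.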 The source made the active and inactive calls. Rule as the data show it: active = GI50 up to about 1.1 µM and inactive = higher. Where only a bound is given, the exact number is not on record here.

Among the test systems are DMS-114; KM-20L2; DLD-1; M19-MEL; DMS-273; SNB-78; HOP-18; XF498; RXF 631.
Common to all, as to assay: inhibition of tumour cell growth, NCI panel, 48 h

With `O=c1c2ccccc2sc2nc(CCl)nn12`, the GI50 in the test on DMS-114 is 17.6 µM (inactive); in the test with KM-20L2 it was 14.5 µM (inactive); with DLD-1, 6.81 µM (inactive); in the test on M19-MEL it was 19.7 µM (inactive); with DMS-273, 8.18 µM (inactive); in the test with SNB-78, > 68.4 µM (inactive).
Consider `COc1ccc([Se]c2ccc(OC)cc2)cc1`, for which the GI50 is 29.1 µM (inactive) in the test with DMS-114; 27.9 µM (inactive) in the test with HOP-18; 65.2 µM (inactive) in the test with KM-20L2; > 100 µM (inactive) with DLD-1; > 100 µM (inactive) in the test with XF498; 69.7 µM (inactive) with M19-MEL. In the test on DMS-273, the GI50 was 92.5 µM (inactive).
Consider `O=C(O)c1ccccc1NC(=O)C1CCCCC1`, for which the GI50 in the test on DMS-114, in the test with KM-20L2, in the test on DLD-1, with XF498, with M19-MEL and in the test on DMS-273 was > 100 µM (inactive) throughout. The GI50 with RXF 631 and in the test on SNB-78 was > 100 µM (inactive) each time.
On to `COc1cccc2c1C(=O)c1c(O)c3c(c(O)c1C2=O)C[C@@](O)(C(C)=O)C[C@@H]3OC1CC(N(C)C)C(O)C(C)O1` (some centres not stated), for which the GI50 was 0.0475 µM (active) in the test with DMS-114; 0.0859 µM (active) in the test on HOP-18; 0.00603 µM (active) in the test with KM-20L2; 0.0153 µM (active) with DLD-1; 0.0001 µM (active) in the test on XF498; 0.0213 µM (active) with M19-MEL. The GI50 was 0.00964 µM (active) in the test on DMS-273 and 0.00873 µM (active) with SNB-78.
With `COc1ccc2cc(C(=O)c3ccccc3C(=O)O)ccc2c1`, the GI50 with DMS-114, in the test with HOP-18, with KM-20L2, in the test on DLD-1, with M19-MEL and with DMS-273 was > 100 µM (inactive) in each case.
Consider `COC(=O)/C(=N\NC(=O)C[N+](C)(C)C)C(C(=O)OC)C(=O)C(=O)Nc1ccccc1C(N)=O` (configuration not stated), for which the GI50 with HOP-18, with KM-20L2, in the test on DLD-1, in the test with M19-MEL, in the test with DMS-273 and in the test with SNB-78 was > 100 µM (inactive) each time.
With `Cn1ccnc1CCc1ccc(Cl)c(Cl)c1`, the GI50 is 67.5 µM (inactive) in the test with DMS-114; 47.1 µM (inactive) in the test on HOP-18; > 100 µM (inactive) in the test on KM-20L2; > 100 µM (inactive) with DLD-1; > 100 µM (inactive) in the test on M19-MEL; > 100 µM (inactive) with DMS-273. Further, the GI50 in the test with SNB-78 was > 100 µM (inactive).
Consider `C1=C2/CC[C@H](Sc3ccccc3)C2C2(CCCCC/1)OCCO2` (some centres not stated), for which the GI50 in the test with HOP-18 is 29.9 µM (inactive); in the test with KM-20L2 it was 18.2 µM (inactive); in the test with DLD-1, 33 µM (inactive); with XF498 it was 22.7 µM (inactive); in the test with M19-MEL, 15.6 µM (inactive); in the test on DMS-273, 25.4 µM (inactive). For the same molecule, the GI50 in the test with SNB-78 is 39.4 µM (inactive).
In the case of `COc1ccc(NC(=O)CSc2nnc(-c3ccc(/N=C\c4ccc(Cl)cc4)cc3)o2)cc1`, the GI50 with DMS-114 is 15.2 µM (inactive); with HOP-18, 12.5 µM (inactive); in the test with KM-20L2 it was 39.6 µM (inactive); in the test on XF498, 17.1 µM (inactive); in the test on M19-MEL, 15 µM (inactive); in the test with DMS-273, 26.8 µM (inactive). In addition, the GI50 in the test with SNB-78 is 24.9 µM (inactive).
Take `CCN(CC)CCSc1c2ccccc2nc2cc(NCC(=O)Nc3ccccc3-c3ccccc3NC(=O)CNc3ccc4c(SCCN(CC)CC)c5ccccc5nc4c3)ccc12`: the GI50 with HOP-18 is > 100 µM (inactive); in the test on KM-20L2 it was > 100 µM (inactive); in the test with DLD-1 it was > 100 µM (inactive); with XF498, > 100 µM (inactive); in the test on M19-MEL, 23 µM (inactive); with DMS-273, > 34.7 µM (inactive). Also, the GI50 with RXF 631 was > 100 µM (inactive).
`N#CCCN(CCC#N)c1ccc(C(=O)NN)cc1`: the GI50 in the test with DMS-114, in the test on HOP-18, in the test on KM-20L2, in the test with DLD-1, in the test on XF498 and in the test with M19-MEL was > 100 µM (inactive) each time. Moreover, the GI50 in the test on DMS-273, in the test on RXF 631 and with SNB-78 was > 100 µM (inactive) each time.
For the molecule `CC(C)(C)N1CC1CNC(=O)C(=O)NCC1CN1C(C)(C)C` (configuration not stated), the GI50 with DMS-114 was 0.603 µM (active); in the test with HOP-18, 1.07 µM (active); in the test on KM-20L2, 1.65 µM (inactive); in the test with DLD-1, 0.556 µM (active); in the test with XF498, 0.526 µM (active); in the test with M19-MEL, 1.26 µM (inactive).
Take `CN[C@@H](C)[C@H](NC)c1ccccc1`: the GI50 in the test with DMS-114, with HOP-18, in the test on DLD-1, in the test on M19-MEL, with DMS-273 and in the test on RXF 631 was > 100 µM (inactive) in each case. Further, the GI50 with SNB-78 was > 100 µM (inactive).
For `C[C@@H]1OC2(O)[C@H]3CCCN3S(=O)(=O)CCN2C1=O` (some centres not stated), the GI50 was > 100 µM (inactive) in the test on HOP-18; > 100 µM (inactive) with KM-20L2; > 100 µM (inactive) with DLD-1; 0.0306 µM (active) in the test on XF498; > 100 µM (inactive) with M19-MEL; > 100 µM (inactive) in the test on RXF 631. In addition, in the test on SNB-78, the GI50 is > 100 µM (inactive).
For `COC(=O)C(C(=O)C(=O)Nc1c(C)cccc1C)c1cnc2ccccc2n1` (configuration not stated), the GI50 in the test with DMS-114, in the test with HOP-18, in the test with KM-20L2, in the test with XF498, with DMS-273 and in the test on RXF 631 was > 100 µM (inactive) in each case. The GI50 with SNB-78 is > 100 µM (inactive).
Regarding `CCCCCCCCCCCC(=O)OC(COC(N)=O)COc1ccc(Cl)cc1` (configuration not stated), the GI50 in the test with DMS-114 is 17.3 µM (inactive); in the test with HOP-18 it was 11.3 µM (inactive); with KM-20L2, 37.8 µM (inactive); with DLD-1 it was 38 µM (inactive); in the test with XF498 it was 21.4 µM (inactive); with M19-MEL, 18.6 µM (inactive). Also, the GI50 in the test on DMS-273 is 20.9 µM (inactive); in the test on RXF 631, 26.2 µM (inactive); in the test on SNB-78, 24.3 µM (inactive).
Turning to `CCc1cccc(C)c1NC(=O)CC(=O)NNC(N)=S`, the GI50 in the test with DMS-114, in the test with HOP-18, in the test with KM-20L2, with DLD-1, with XF498 and in the test on DMS-273 was > 100 µM (inactive) each time. Moreover, in the test with SNB-78, the GI50 was > 100 µM (inactive).
For `CN(C)c1ccc2c(=O)c3ccccc3oc2n1`, the GI50 was 82.2 µM (inactive) in the test on DMS-114; > 100 µM (inactive) in the test with KM-20L2; 73.5 µM (inactive) in the test on DLD-1; > 100 µM (inactive) in the test with XF498; > 100 µM (inactive) in the test with M19-MEL; > 100 µM (inactive) in the test on DMS-273. For the same molecule, the GI50 with RXF 631 and in the test with SNB-78 was > 100 µM (inactive) in each case.
`CCCCCCCCCCCC(=O)OCC1OC(n2cc(F)c(=O)[nH]c2=O)C(NC(=O)OCc2ccccc2)C(OC(=O)CCCCCCCCCCC)C1O` (configuration not stated): the GI50 in the test on DMS-114, in the test with HOP-18, in the test with KM-20L2, in the test on DLD-1, with XF498 and with M19-MEL was > 100 µM (inactive) throughout. The GI50 in the test on DMS-273, in the test on RXF 631 and with SNB-78 was > 100 µM (inactive) throughout.
As for `COc1ccc(NC(=O)C(=O)Cc2nc3ccc([N+](=O)[O-])cc3nc2O)c(OC)c1`, the GI50 with DMS-114 is > 100 µM (inactive); in the test with HOP-18, 56.1 µM (inactive); in the test with KM-20L2, > 100 µM (inactive); in the test with DLD-1, > 100 µM (inactive); with M19-MEL it was > 100 µM (inactive); in the test on DMS-273, > 100 µM (inactive).
Turning to `CN(C)c1ccc(/C=C2\CNC/C(=C\c3ccc(N(C)C)cc3)C2=O)cc1`, the GI50 in the test with DMS-114 is 18.8 µM (inactive); with HOP-18, 18.9 µM (inactive); in the test on KM-20L2, 30.1 µM (inactive); with DLD-1 it was 18.9 µM (inactive); with XF498, 16.4 µM (inactive); with M19-MEL, 18.4 µM (inactive). Besides, the results for the GI50 with DMS-273, in the test with RXF 631 and in the test on SNB-78 were 12.7 µM (inactive), 21.7 µM (inactive) and > 100 µM (inactive), respectively.
Turning to `COc1cc([C@@H]2c3cc4c(c(O)c3C[C@H]3COC(=O)[C@@H]32)OCO4)cc(OC)c1OC` [BETA-PELTATIN A], the GI50 in the test on DMS-114 is 0.015 µM (active); in the test with HOP-18 it was 1.26 µM (inactive); with DLD-1, 0.015 µM (active); with XF498, 0.015 µM (active); with M19-MEL, 0.0548 µM (active); with DMS-273, 0.015 µM (active). The GI50 with SNB-78 was 0.015 µM (active).
As for `Nc1ccc2c(c1)CN1C(=O)c3ccccc3C1=N2` [DANIQUIDONE], the GI50 was 70.5 µM (inactive) with DMS-114; 108 µM (inactive) with HOP-18; 59 µM (inactive) in the test on KM-20L2; 51.1 µM (inactive) in the test with DLD-1; > 116 µM (inactive) in the test with M19-MEL; 32.4 µM (inactive) in the test with DMS-273. Further, the GI50 in the test with SNB-78 was 25 µM (inactive).
